The values below come from US20040072287A1 (priority 2003, published 2004).

Values joined by “and” are separate entries in the source; they are usually repeats but may differ in a detail not shown here. Identical values can stand only once. Ends that are not written are not given here.

The subject of one experiment is GOTO cells. As to the kind of experiment: aequorin bioluminescence assay in GOTO cells without exogenous MCHR1 (aequorin only, or no plasmids). It is filed as cell-based, human. The method, then:
The aequorin bioluminescence assay can be used to measure the activity of G protein-coupled receptors that couple through the Ga protein subunit family consisting of Gq, G11, and Gi leading to the activation of phospholipase C, mobilization of intracellular calcium and activation of protein kinase C. Measurement of functional MCHR1 expression in GOTO cells transiently expressing aequorin was performed using a Luminoskan RT luminometer (Labsystems Inc., Gaithersburg, Md.) controlled by custom software written for a Macintosh PowerPC 6100.
GOTO cells (1.2×10^7 cells plated 18 hours before transfection in a T75 flask) were transfected with human MCHR1 plasmid DNA and aequorin cDNA using the Lipofectamine 2000 procedure (Life Technologies, Gaithersburg, Md.). Human MCHR1 plasmid DNA contained the open reading frame cDNA (SEQ. ID. NO. 2) encoding the human MCHR1 receptor inserted in the mammalian expression vector pcDNA-3 (Invitrogen, Carlsbad, Calif.). An aequorin expressing plasmid contained the cDNA for aequorin (Button, et al., 1993. Cell Calcium 14, 663-671), inserted in pcDNA-3. Following approximately 40 hours of expression the apo-aequorin in the cells was charged for 1 hour with coelenterazine (10 μM) under reducing conditions (300 μM reduced glutathione) in ECB buffer (140 mM NaCl, 20 mM KCl, 20 mM HEPES-NaOH [pH=7.4], 5 mM glucose, 1 mM MgCl2, 1 mM CaCl2, 0.1 mg/ml bovine serum albumin). The cells were harvested, washed once in ECB medium and resuspended to 500,000 cells/ml or 1,000,000cells/ml.
Lysophosphatidic acid triggers native edg receptors coupled to PLC activation present on GOTO cells. The integrated light emission was recorded over 30 seconds, in 0.5 second units. 20 μL of lysis buffer (0.1% final Triton X-100 concentration) was then injected and the integrated light emission recorded over 10 seconds, in 0.5 second units. The “fractional response” values for each well were calculated by taking the ratio of the integrated response to the initial challenge to the total integrated luminescence including the Triton X-100 lysis response.

Experiment [1] concerns the target human melanin-concentrating hormone receptor 1 (MCHR1) (human) (UniProt Q99705). Briefly: cell-based or functional assay.
In another experiment the target is T1, human MCHR1 (Homo sapiens, UniProt Q99705).
T1 construct: expressed in transfected cells; host or cells: GOTO human neuroblastoma cells, transient co-transfection with aequorin cDNA (pcDNA-3, Lipofectamine 2000)
T1 sequence (Q99705 whole entry): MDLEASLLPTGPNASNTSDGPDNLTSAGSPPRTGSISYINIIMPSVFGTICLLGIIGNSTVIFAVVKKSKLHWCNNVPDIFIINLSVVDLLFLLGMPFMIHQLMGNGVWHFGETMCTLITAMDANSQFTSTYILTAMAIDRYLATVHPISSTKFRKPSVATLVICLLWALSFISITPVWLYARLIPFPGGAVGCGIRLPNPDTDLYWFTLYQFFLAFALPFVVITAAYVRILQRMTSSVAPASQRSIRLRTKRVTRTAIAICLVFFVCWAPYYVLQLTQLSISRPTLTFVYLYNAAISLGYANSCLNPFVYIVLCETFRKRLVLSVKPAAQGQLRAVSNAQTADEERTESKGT
As to the kind of experiment: aequorin bioluminescence assay in GOTO cells co-transfected with aequorin and human MCHR1. It is filed as cell-based. As to conditions: 1 μM; GOTO cells transfected with AEQ + MCHR1. On the procedure:
20 μL of lysis buffer (0.1% final Triton X-100 concentration) was then injected and the integrated light emission recorded over 10 seconds, in 0.5 second units. The “fractional response” values for each well were calculated by taking the ratio of the integrated response to the initial challenge to the total integrated luminescence including the Triton X-100 lysis response.

[2] abbreviates: 1 μM, GOTO cells, No Aeq (no aequorin and no MCHR1 plasmid).

Sequence of human melanin-concentrating hormone receptor 1 (MCHR1) (human) (Q99705 whole entry): as above

Take “Melanin-concentrating hormone (DFDMLRCMLGRVYRPCWQV; ends and bridges not checked; also: cyclic, ring closure not given here) [MCH]”: the bioluminescence in the experiment with GOTO cells (setting [2]) is 0 cps. In addition, the “signal over background (in words)” value in the experiment on GOTO cells (GOTO cells, absence of exogenous MCHR1, background = buffer injection only (ECB)) is “no signal over background”.
On to “Melanin-concentrating hormone (MCH) (from UniProt P20382 147-165) (peptide)”, for which, in experiment [1], the aequorin bioluminescence (cps), GOTO cells transfected with AEQ + MCHR1, MCH (1 µM) is 26.4 cps and 26.6 cps.
As for lysophosphatidic acid [LPA], the bioluminescence came to 5.24 cps with GOTO cells (1 μM, GOTO cells transfected with AEQ only (no MCHR1 plasmid)); 0 cps with GOTO cells (setting [2]); 6.83 cps on human MCHR1. For the same substance, in the experiment with GOTO cells (1 μM, GOTO cells, native edg receptor), the “control response, calcium mobilization via edg receptor (in words)” value is recorded as “control response evoked”.
